Results from ChEMBL document CHEMBL3885861, “Open TG-GATES”.

Organism: Rattus norvegicus
Assay: Open TG-GATES - Regimen: Daily Repeat
Format: toxicity, organism-based, Sprague-Dawley
Set-up: regimen Daily Repeat, gender Male, age 6 weeks
Conditions: in vivo, po, 300 mg/kg, […], route gavage, dose level High; for KIDNEY_L / KIDNEY_R / KIDNEY_TOTAL: tissue Kidney; for LIVER: tissue Liver; for A/G / ALP / ALT / AST / BUN / CRE / Ca / Cl / DBIL / GLC / IP / K / LDH / Na / PL / RALB / TBIL / TC / TG / TP / gamma-GTP: tissue Plasma

For `C[C@]12CCC(=O)C=C1CC[C@@H]1[C@@H]2CC[C@@]2(C)[C@H]1CC[C@]2(C)O` [METHYLTESTOSTERONE], the Lym (tissue Blood, time 28 day) was 77.8%, the MCH (tissue Blood, time 28 day) was 19.3 pg and the MCHC (tissue Blood, time 28 day) was 35.7%. For the same compound, the MCV (tissue Blood, time 28 day) was 54.1 fL, the Mono (tissue Blood, time 28 day) was 3.2% and the Neu (tissue Blood, time 28 day) was 17.4%. It also gave a PT (tissue Blood, time 28 day) of 13.6 s, a Plat (tissue Blood, time 28 day) of 111.9 x10_4/uL and an RBC (tissue Blood, time 28 day) of 819 x10_4/ul. The Ret (tissue Blood, time 28 day) was 2.6%, the WBC (tissue Blood, time 28 day) was 81.2 x10_2/uL and the KIDNEY_L (time 7 day) was 1.2 g. It also gave a KIDNEY_R (time 7 day) of 1.2 g, a KIDNEY_TOTAL (time 7 day) of 2.4 g and a KIDNEY_L (time 14 day) of 1.4 g. For the same compound, the KIDNEY_R (time 14 day) was 1.4 g, the KIDNEY_TOTAL (time 14 day) was 2.8 g and the KIDNEY_L (time 28 day) was 1.8 g. The KIDNEY_R (time 28 day) was 1.8 g, the KIDNEY_TOTAL (time 28 day) was 3.7 g and the LIVER (time 7 day) was 13.5 g. The LIVER (time 14 day) was 15.3 g, the LIVER (time 28 day) was 18.6 g and the A/G (time 7 day) was 0.9. The ALP (time 7 day) was 1693.8 IU/L, the ALT (time 7 day) was 44.4 IU/L and the AST (time 7 day) was 63.4 IU/L. For the same compound, the BUN (time 7 day) was 13.8 mg/dL, the CRE (time 7 day) was 0.2 mg/dL and the Ca (time 7 day) was 10.9 mg/dL. The Cl (time 7 day) was 105 meq/L, the DBIL (time 7 day) was 0.028 mg/dL and the GLC (time 7 day) was 182.4 mg/dL. For the same compound, the IP (time 7 day) was 7.6 mg/dL, the K (time 7 day) was 3.8 meq/L and the LDH (time 7 day) was 89.4 IU/L. For the same compound, the Na (time 7 day) was 143.4 meq/L, the PL (time 7 day) was 117.2 mg/dL and the RALB (time 7 day) was 2.9 g/dL. It also gave a TBIL (time 7 day) of 0.03 mg/dL, a TC (time 7 day) of 38.6 mg/dL and a TG (time 7 day) of 228.8 mg/dL. For the same compound, the TP (time 7 day) was 6.2 g/dL, the gamma-GTP (time 7 day) was 1 IU/L and the A/G (time 14 day) was 0.8. It also gave an ALP (time 14 day) of 1180 IU/L, an ALT (time 14 day) of 62 IU/L and an AST (time 14 day) of 69.8 IU/L. For the same compound, the BUN (time 14 day) was 13 mg/dL, the CRE (time 14 day) was 0.2 mg/dL and the Ca (time 14 day) was 10.4 mg/dL. The Cl (time 14 day) was 105 meq/L, the DBIL (time 14 day) was 0.022 mg/dL and the GLC (time 14 day) was 172.6 mg/dL. The IP (time 14 day) was 7.8 mg/dL, the K (time 14 day) was 3.9 meq/L and the LDH (time 14 day) was 128.8 IU/L. It also gave a Na (time 14 day) of 143 meq/L, a PL (time 14 day) of 139.2 mg/dL and an RALB (time 14 day) of 2.8 g/dL. The TBIL (time 14 day) was 0.03 mg/dL, the TC (time 14 day) was 44 mg/dL and the TG (time 14 day) was 191.2 mg/dL. It also gave a TP (time 14 day) of 6.2 g/dL, a gamma-GTP (time 14 day) of 1.8 IU/L and an A/G (time 28 day) of 0.8. For the same compound, the ALP (time 28 day) was 1072 IU/L, the ALT (time 28 day) was 49.8 IU/L and the AST (time 28 day) was 60.2 IU/L. It also gave a BUN (time 28 day) of 12.4 mg/dL, a CRE (time 28 day) of 0.2 mg/dL and a Ca (time 28 day) of 10.9 mg/dL. The Cl (time 28 day) was 101.6 meq/L, the DBIL (time 28 day) was 0.026 mg/dL and the GLC (time 28 day) was 172 mg/dL. For the same compound, the IP (time 28 day) was 6.5 mg/dL, the K (time 28 day) was 3.4 meq/L and the LDH (time 28 day) was 100 IU/L. It also gave a Na (time 28 day) of 144.2 meq/L, a PL (time 28 day) of 118.6 mg/dL and an RALB (time 28 day) of 2.9 g/dL. It also gave a TBIL (time 28 day) of 0.032 mg/dL, a TC (time 28 day) of 36.2 mg/dL and a TG (time 28 day) of 202.2 mg/dL. For the same compound, the TP (time 28 day) was 6.3 g/dL and the gamma-GTP (time 28 day) was 2.6 IU/L.
